Test results: patent US20090186110A1, “GUAVA EXTRACT” (priority 2005, published 2009)

Biological target: T1, DP-IV (Homo sapiens, UniProt P27487)
T1 construct: DP-IV also exists as a soluble circulating form in plasma; from tissue; host or cells: human plasma
Assay: DP-IV activity colorimetric assay (Gly-Pro-4-NA substrate, human plasma)
Assay type: biochemical
Protocol: DP-IV activity was measured by a colorimetric assay.
DP-IV activity is expressed as the linear change in optical density over 20 min (Δ Abs/min).

T1 sequence (P27487 39-766 limits assumed): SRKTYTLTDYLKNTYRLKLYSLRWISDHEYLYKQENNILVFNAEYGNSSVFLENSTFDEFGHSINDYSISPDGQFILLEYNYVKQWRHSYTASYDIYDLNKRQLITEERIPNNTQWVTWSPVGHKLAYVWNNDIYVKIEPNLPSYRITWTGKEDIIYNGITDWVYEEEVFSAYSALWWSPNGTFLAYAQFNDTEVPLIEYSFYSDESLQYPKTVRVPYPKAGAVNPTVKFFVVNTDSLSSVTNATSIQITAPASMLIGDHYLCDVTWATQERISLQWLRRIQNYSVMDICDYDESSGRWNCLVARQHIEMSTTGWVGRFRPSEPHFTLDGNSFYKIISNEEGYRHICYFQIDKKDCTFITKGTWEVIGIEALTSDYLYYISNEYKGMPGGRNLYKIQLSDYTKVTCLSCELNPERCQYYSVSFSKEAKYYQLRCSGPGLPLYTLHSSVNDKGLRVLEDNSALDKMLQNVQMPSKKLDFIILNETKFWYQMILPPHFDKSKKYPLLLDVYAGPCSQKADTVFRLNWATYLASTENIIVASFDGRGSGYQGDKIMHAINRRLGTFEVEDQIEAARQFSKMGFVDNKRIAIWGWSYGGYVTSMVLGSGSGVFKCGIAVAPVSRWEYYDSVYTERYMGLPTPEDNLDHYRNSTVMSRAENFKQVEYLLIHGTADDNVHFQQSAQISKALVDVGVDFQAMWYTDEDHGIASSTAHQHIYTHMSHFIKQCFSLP

O=c1c(O[C@@H]2OC[C@H](O)[C@H](O)[C@H]2O)c(-c2ccc(O)c(O)c2)oc2cc(O)cc(O)c12 [guaijaverin]
DP-IV inhibition (result in words): clear, dose dependent inhibition of DP-IV | concentration that yielded a DP-IV inhibition of around 50% (guaijaverin in HEPES buffer, tested 70-280 μg/mL): 140-210 μg/mL test assay
